According to article PMC12155096 (International Journal of Molecular Sciences, 2025):
Structures can show the parent of a compound that is named as a salt. Where two headings read alike, the source gives them in different places.

How the values were obtained:
human CYP2C9 [1] = biological target: T1, human CYP2C9 (Homo sapiens, UniProt P11712); assay: biochemical; details: for AC50: CYP2C9 AC50 (half-maximal activity concentration)
human CYP2D6 [2] = biological target: T2, human CYP2D6 (Homo sapiens, UniProt P10635); assay: biochemical
T2 sequence (P10635 whole entry): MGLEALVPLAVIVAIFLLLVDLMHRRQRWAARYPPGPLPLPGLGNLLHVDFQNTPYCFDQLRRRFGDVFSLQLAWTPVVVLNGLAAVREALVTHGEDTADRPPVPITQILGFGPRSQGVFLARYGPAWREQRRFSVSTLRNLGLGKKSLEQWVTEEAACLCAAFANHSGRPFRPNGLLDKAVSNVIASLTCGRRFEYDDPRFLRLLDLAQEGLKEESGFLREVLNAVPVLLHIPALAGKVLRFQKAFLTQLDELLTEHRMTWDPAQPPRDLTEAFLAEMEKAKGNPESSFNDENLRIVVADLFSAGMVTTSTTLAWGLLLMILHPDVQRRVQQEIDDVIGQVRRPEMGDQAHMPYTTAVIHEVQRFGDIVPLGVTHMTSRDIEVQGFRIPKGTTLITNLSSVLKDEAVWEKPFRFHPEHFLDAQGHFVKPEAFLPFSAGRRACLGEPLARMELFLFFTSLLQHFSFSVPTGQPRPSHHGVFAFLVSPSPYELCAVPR

human CYP1A2 [3] = biological target: T3, human CYP1A2 (Homo sapiens, UniProt P05177); assay: biochemical
T3 sequence (P05177 1-516): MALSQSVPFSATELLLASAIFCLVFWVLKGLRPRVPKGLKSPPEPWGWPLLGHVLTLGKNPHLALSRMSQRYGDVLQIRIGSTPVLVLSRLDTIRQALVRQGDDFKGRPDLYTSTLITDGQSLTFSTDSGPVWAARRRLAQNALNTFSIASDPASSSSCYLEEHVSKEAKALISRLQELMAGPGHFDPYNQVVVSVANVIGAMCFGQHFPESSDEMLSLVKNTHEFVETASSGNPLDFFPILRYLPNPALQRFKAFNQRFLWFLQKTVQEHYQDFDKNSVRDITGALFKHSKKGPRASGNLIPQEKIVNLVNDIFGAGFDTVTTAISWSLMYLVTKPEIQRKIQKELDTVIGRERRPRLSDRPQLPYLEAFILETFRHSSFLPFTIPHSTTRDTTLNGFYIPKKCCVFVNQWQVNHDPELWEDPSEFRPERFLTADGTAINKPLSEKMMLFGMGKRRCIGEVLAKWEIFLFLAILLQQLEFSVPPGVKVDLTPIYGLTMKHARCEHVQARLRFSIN

human CYP2C19 [4] = biological target: T4, human CYP2C19 (Homo sapiens, UniProt P33261); assay: biochemical; details: for AC50: CYP2C19 AC50 (half-maximal activity concentration)
T4 sequence (P33261 whole entry): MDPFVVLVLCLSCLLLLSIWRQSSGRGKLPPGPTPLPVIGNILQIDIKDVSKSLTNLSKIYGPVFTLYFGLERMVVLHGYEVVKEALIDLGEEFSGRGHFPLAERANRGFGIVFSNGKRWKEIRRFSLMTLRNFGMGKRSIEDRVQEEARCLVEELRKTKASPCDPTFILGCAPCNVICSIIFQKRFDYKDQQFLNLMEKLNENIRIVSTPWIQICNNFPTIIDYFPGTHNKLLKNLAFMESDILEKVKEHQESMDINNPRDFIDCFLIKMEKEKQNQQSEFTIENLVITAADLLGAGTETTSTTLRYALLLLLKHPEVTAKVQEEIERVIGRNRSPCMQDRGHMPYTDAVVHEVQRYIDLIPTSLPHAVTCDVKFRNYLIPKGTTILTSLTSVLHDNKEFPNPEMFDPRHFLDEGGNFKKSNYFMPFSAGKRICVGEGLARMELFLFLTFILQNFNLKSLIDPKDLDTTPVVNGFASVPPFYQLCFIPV

human CYP2C19 [5] = biological target: T4, human CYP2C19
human CYP1A2 [6] = biological target: T3, human CYP1A2
human CYP2D6 [7] = biological target: T2, human CYP2D6; details: human
human CYP2C9 [8] = biological target: T1, human CYP2C9; details: human
[9] = CYP2C9 IC50 (half-maximal inhibitory concentration)
[10] = CYP2D6 IC50 (half-maximal inhibitory concentration)
[11] = CYP1A2 IC50 (half-maximal inhibitory concentration)
[12] = CYP2C19 IC50 (half-maximal inhibitory concentration)
[13] = CYP2D6 AC50 (half-maximal activity concentration)

T1 sequence (P11712 whole entry): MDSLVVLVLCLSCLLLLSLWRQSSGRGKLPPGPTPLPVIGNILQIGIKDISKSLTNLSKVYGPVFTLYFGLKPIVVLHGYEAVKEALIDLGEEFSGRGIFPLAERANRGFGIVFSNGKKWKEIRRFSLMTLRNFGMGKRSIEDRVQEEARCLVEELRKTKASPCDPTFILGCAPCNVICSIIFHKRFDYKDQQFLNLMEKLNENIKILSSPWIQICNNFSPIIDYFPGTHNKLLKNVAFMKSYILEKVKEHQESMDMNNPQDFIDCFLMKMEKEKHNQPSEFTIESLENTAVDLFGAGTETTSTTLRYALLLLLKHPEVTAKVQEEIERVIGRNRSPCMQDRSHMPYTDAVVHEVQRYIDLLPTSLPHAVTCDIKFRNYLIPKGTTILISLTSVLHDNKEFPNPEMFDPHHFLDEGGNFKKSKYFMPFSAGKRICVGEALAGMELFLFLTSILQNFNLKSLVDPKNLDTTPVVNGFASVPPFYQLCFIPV

`Cc1[nH]cnc1CN1CCc2c(c3ccccc3n2C)C1=O` [Alosetron hydrochloride] gave an IC50 (human CYP2C9 [1]; [9]) of 1.66 µM, an IC50 (human CYP2D6 [2]; [10]) of 10.8 µM and an IC50 (human CYP1A2 [3]; [11]) of 0.89 µM. It also gave an IC50 (human CYP2C19 [4]; [12]) of 27.8 µM.

`CC1=C(C(=O)OC(C)C)C(c2cccc([N+](=O)[O-])c2)C(C(=O)OC2CN(C(c3ccccc3)c3ccccc3)C2)=C(N)N1` (centres unmarked) [Azelnidipine] was tested, and the IC50 (human CYP2C9 [1]) was 1.56 ± 0.18 µM, the IC50 (human CYP2D6 [2]) was 13.2 ± 3.2 µM and the IC50 (human CYP2C19 [4]) was 2.43 ± 0.68 µM.

Compound `COc1ccc2cc3[n+](cc2c1OC)CCc1cc2c(cc1-3)OCO2` [Berberine chloride] has an IC50 (human CYP2D6 [2]; [10]) of 0.52 µM, an IC50 (human CYP1A2 [3]; [11]) of 23.6 µM and an IC50 (human CYP2C19 [4]; [12]) of 26.9 µM.

Compound `CCCCC(=O)O[C@]1(C(=O)CO)[C@@H](C)C[C@H]2[C@@H]3CCC4=CC(=O)C=C[C@]4(C)[C@@]3(F)[C@@H](O)C[C@@]21C` [Betamethasone valerate] has an IC50 (human CYP2C9 [1]; [9]) of 17.4 µM, an IC50 (human CYP2D6 [2]; [10]) of 39.1 µM and an IC50 (human CYP2C19 [4]; [12]) of 31.1 µM.

Compound `O=C1CC2(CCCC2)CC(=O)N1CCNCC1COc2ccccc2O1` (centres unmarked) [Binospirone mesylate] has an IC50 (human CYP2C9 [1]) of 23.5 ± 5.69 µM, an IC50 (human CYP2D6 [2]) of 0.29 ± 0.02 µM and an IC50 (human CYP2C19 [4]) of 8.77 ± 1.42 µM.

With `Cc1cc2c(OCC(CNC(C)(C)C)OC(=O)c3ccccc3)cccc2[nH]1` (centres unmarked) [Bopindolol] the IC50 (human CYP2C9 [1]) was 6.95 ± 0.8 µM, the IC50 (human CYP2D6 [2]) was 0.64 ± 0.04 µM and the IC50 (human CYP2C19 [4]) was 23.9 ± 13 µM.

For `CCCC(=O)O[C@]1(C(=O)CCl)[C@@H](C)C[C@H]2[C@@H]3CCC4=CC(=O)C=C[C@]4(C)[C@@]3(F)C(=O)C[C@@]21C` [Clobetasone butyrate], the IC50 (human CYP2C9 [1]; [9]) was 17.6 µM, the IC50 (human CYP2D6 [2]; [10]) was 7.77 µM and the IC50 (human CYP2C19 [4]; [12]) was 8.43 µM.

Work on `CN1CCC(=C2c3ccccc3C=Cc3ccccc32)CC1` [Cyproheptadine hydrochloride] yielded an AC50 (human CYP2D6 [2]; [13]) of 2.67 µM and an AC50 (human CYP2C19 [4]) of 21.5 µM.

Compound `O=C(Nc1ccccc1)OCC(CN1CCCCC1)OC(=O)Nc1ccccc1` (centres unmarked) [Diperodon hydrochloride] has an IC50 (human CYP2C9 [1]; [9]) of 20.8 µM, an IC50 (human CYP2D6 [2]; [10]) of 0.36 µM and an IC50 (human CYP2C19 [4]; [12]) of 7.12 µM.

Compound `CCCCOc1ccc(C(=O)CCN2CCCCC2)cc1` [Dyclonine hydrochloride] has an AC50 (human CYP2C9 [1]) of 14.5 µM and an AC50 (human CYP2D6 [2]; [13]) of 6.92 µM.

`CCN(CC)CCOc1ccccc1C(=O)CCc1ccccc1` [Etafenone] was tested, and the IC50 (human CYP2D6 [2]) was 0.64 ± 0.08 µM, the IC50 (human CYP1A2 [3]) was 6.05 ± 1.51 µM and the IC50 (human CYP2C19 [4]) was 35.6 ± 11.4 µM.

`CC(Cc1ccccc1)NCCn1cnc2c1c(=O)n(C)c(=O)n2C` (centres unmarked) [Fenethylline hydrochloride] gave an IC50 (human CYP2D6 [2]; [10]) of 5.37 µM and an IC50 (human CYP2C19 [4]; [12]) of 85.1 µM.

`O=C(CN1CCN(Cc2ccc3c(c2)OCO3)CC1)N1c2ccccc2Sc2ccccc21` [Fenoverine] gave an IC50 (human CYP2C9 [1]; [9]) of 18.9 µM, an IC50 (human CYP2D6 [2]; [10]) of 0.46 µM and an IC50 (human CYP2C19 [4]; [12]) of 40.7 µM.

With `CCC(=O)O[C@]1(C(=O)SCF)[C@H](C)C[C@H]2[C@@H]3C[C@H](F)C4=CC(=O)C=C[C@]4(C)[C@@]3(F)[C@@H](O)C[C@@]21C` [Fluticasone propionate] the IC50 (human CYP2C9 [1]; [9]) was 4.84 µM and the IC50 (human CYP2D6 [2]; [10]) was 13 µM.

Work on `CN1CCN(CCC(=O)N2c3ccccc3Sc3ccc(C(F)(F)F)cc32)CC1` [Ftormetazine] yielded an IC50 (human CYP2D6 [2]; [10]) of 0.14 µM, an IC50 (human CYP1A2 [3]; [11]) of 29.2 µM and an IC50 (human CYP2C19 [4]; [12]) of 27 µM.

With `N=C(N)NC(=O)Cc1c(Cl)cccc1Cl` [Guanfacine hydrochloride] the AC50 (human CYP2C9 [1]) was 27.3 µM, the AC50 (human CYP2D6 [2]; [13]) was 25.8 µM and the “CYP2C19 AC50 (half-maximal activity concentration)” value (human CYP2C19 [5]) was “Inactive”. For the same compound, the “CYP1A2 AC50 (half-maximal activity concentration)” value (human CYP1A2 [6]) was “Inactive”.

Compound `COc1cc(C(C)=O)ccc1OCCCN1CCC(c2noc3cc(F)ccc23)CC1` [Iloperidone] has an IC50 (human CYP2C9 [1]) of 22.9 ± 14.1 µM and an IC50 (human CYP2D6 [2]) of 10.1 ± 2.8 µM.

With `CN1CCC(=C2c3ccccc3CC(=O)c3sccc32)CC1` [Ketotifen] the AC50 (human CYP2D6 [2]; [13]) was 2.2 µM and the AC50 (human CYP2C19 [4]) was 37.5 µM.

Compound `COC(=O)C1=C(C)NC(C)=C(C(=O)OC(C)(C)CN(C)CCC(c2ccccc2)c2ccccc2)C1c1cccc([N+](=O)[O-])c1` (centres unmarked) [Lercanidipine hydrochloride] has an IC50 (human CYP2C9 [1]) of 2.89 ± 0.52 µM, an IC50 (human CYP2D6 [2]) of 4.44 ± 1.02 µM and an IC50 (human CYP1A2 [3]) of 32.8 ± 2.67 µM.

Work on `O=C(O)c1nn(Cc2ccc(Cl)cc2Cl)c2ccccc12` [Lonidamine] yielded an AC50 (human CYP2C9 [1]) of 68 µM and an AC50 (human CYP2D6 [2]; [13]) of 66 µM.

For `Cc1nc(N)nc(N)c1-c1ccc(Cl)c(Cl)c1` [Methodichlorophen], the AC50 (human CYP2D6 [2]) was 2.3 ± 0.41 µM.

`Clc1ccc(C(c2ccccc2Cl)C(Cl)Cl)cc1` (centres unmarked) [Mitotane] was tested, and the AC50 (human CYP2C9 [1]) was 10.6 µM, the IC50 (human CYP2C9 [1]; [9]) was 10.6 µM and the “CYP2D6 Efficacy (in parenthesis)” value (human CYP2D6 [7]) was 32.45 ± 5.84 (-38 ± 9) %. The AC50 (human CYP2D6 [2]; [13]) was 32.4 µM, the IC50 (human CYP2D6 [2]; [10]) was 32.4 µM and the “CYP2C19 Efficacy (in parenthesis)” value (human CYP2C19 [5]; human) was 0.82 ± 0.15 (-131 ± 13) %. The “CYP2C9 Efficacy (in parenthesis)” value (human CYP2C9 [8]) was 10.57 ± 0.69 (-106 ± 4) %, the AC50 (human CYP2C19 [4]) was 0.82 µM and the IC50 (human CYP2C19 [4]; [12]) was 0.82 µM.

In the case of `C[C@@H]1C[C@H]2[C@@H]3CCC4=CC(=O)C=C[C@]4(C)[C@@]3(Cl)[C@@H](O)C[C@]2(C)[C@@]1(OC(=O)c1ccco1)C(=O)CCl` [Mometasone furoate, reference compound], the IC50 (human CYP2C9 [1]; [9]) is reported as 8.08 µM, the IC50 (human CYP2D6 [2]; [10]) is reported as 3.75 µM and the IC50 (human CYP2C19 [4]; [12]) is reported as 7.97 µM.
